For one compound, pK results are on record in patent US12721818B2, “Compositions and methods for delivery of RNA” (Rejuvenation Technologies Inc., priority 2021, dated 2026).

A short description of the data set: pK of the ionizable lipid (Table 6A). It is filed as physicochemical. To be noted: ionizable lipid of the Table 6A formulation.

Turning to `CCCCCCCC/C=C\CCCCCCCC(=O)Oc1ccc(CC(=O)OCCC2CCN(CCSSCCN3CCC(CCOC(=O)Cc4ccc(OC(=O)CCCCCCC/C=C\CCCCCCCC)cc4)CC3)CC2)cc1` [SS-OP], the pK was around 6.4.
